US20220305017A1, “COMPOSITIONS AND METHODS FOR THE TREATMENT OF ESTROGEN-DEPENDENT DISORDERS” (ObsEva S.A., priority 2019, published 2022)

System: human female patients diagnosed as having adenomyosis
Assay: human clinical trial in adenomyosis (single-patient longitudinal case study and multi-patient analysis, n = 6)
Type: in vivo
Conditions: single patient
From the text: This examples describes the results of a human clinical trial conducted to evaluate the ability of a GnRH antagonist, 3-[2-fluoro-5-(2,3-difluoro-6-methoxybenzyloxy)4-methoxyphenyl]-2,4-dioxo-1,2,3,4-tetrahydrothieno [3,4d]pyrimidine-5-carboxylic acid (represented by formula (VI)), or a pharmaceutically acceptable salt thereof, to treat adenomyosis, an estrogen-dependent disease, in human patients diagnosed as having this condition.
One aim of this study was to investigate the ability of the GnRH antagonist to maintain its therapeutic effects despite being administered to patients in a progressively lower dosage throughout the trial. To this end, the patients treated in this study was first administered the GnRH antagonist of formula (VI) in an amount of 200 mg/day during an initial 12-week period. The GnRH antagonist was then administered to the patients in a reduced amount of 100 mg/day during a subsequent 12-week period. The patients' responsiveness to the GnRH antagonist was monitored throughout the study.
In addition to assessing the effectiveness of the GnRH antagonist when administered at lower doses, another aim of this study was to evaluate the ability of the GnRH antagonist to sustain its therapeutic effects even after treatment was ceased altogether. Accordingly, after being periodically administered the GnRH antagonist of formula (VI) over the course of 24 weeks, first in an amount of 200 mg/day and then in an amount of 100 mg/day, treatment with the GnRH antagonist was halted entirely. The patients were then monitored during a post-treatment follow-up period to analyze the extent to which the therapeutic effects of the compound were sustained.
To test the effects of compound (VI), a total of n=6 human female patients diagnosed as having adenomyosis were administered compound (VI) in accordance with the dosing schedule described above. One of these patients in particular was closely monitored beginning well before their treatment with compound (VI) was initiated. The specific results of this patient's therapy are described in the section entitled “Single-Patient Longitudinal Case Study,” below. The cumulative set of results for all 6 patients is reported in the section entitled “Multi-Patient Analysis,” below.
As part of the clinical trial, a case study was conducted in which a single patient of reproductive age having clinically diagnosed adenomyosis was monitored during the course of treatment with compound (VI). The patient was nulliparous. Two years before the study began, the patient presented with heavy menstrual bleeding, pelvic pain, and dysmenorrhea. […] Their gynecologist prescribed ulipristal acetate (UPA), a selective progesterone receptor modulator (SPRM), to be administered in an amount of 5 mg/day over the course of a treatment period lasting three months.
The patient was then recommended for treatment with the GnRH antagonist represented by formula (VI) herein. Accordingly, the patient was orally administered compound (VI) in an amount of 200 mg/day for three months. Following this initial three-month period, the patient was orally administered compound (VI) in a reduced amount of 100 mg/day for a subsequent three-period. During both treatment periods, compound (VI) was administered to the patient in the form of a choline salt.
The patient was recommended for once-daily treatment with the GnRH antagonist of formula (VI). Accordingly, the patient was administered the GnRH antagonist of formula (VI) in an amount of 200 mg/day during a first treatment period, which lasted three months. At the conclusion of the first treatment period, the patient began a second treatment period in which they were administered compound (VI) in a reduced amount of 100 mg/day for three months. During both treatment periods, compound (VI) was administered to the patient in the form of a choline salt. […]

In the case of `CC(=O)O[C@]1(C(C)=O)CC[C@H]2[C@@H]3CCC4=CC(=O)CCC4=C3[C@@H](c3ccc(N(C)C)cc3)C[C@@]21C` [UPA, ulipristal acetate, reference compound], the bleeding during treatment (5 mg/day for three months) is reported as “breakthrough bleeding and spotting”, the “symptoms of pelvic pain and dysmenorrhea” value (5 mg/day for three months, before compound (VI)) is reported as “worsened” and the “adenomyotic lesions by MRI” value (end of 5 mg/day three-month course, FIG. 4B) is reported as “significantly increased quantity of adenomyotic lesions”.
